# Tests used:
# Format in all cases: functional
# Spodoptera littoralis [1] = assay: Antifeedant activity against Spodoptera littoralis measured at 100 mg/l after 8 to 24 hr by behavioral bioassay
# Spodoptera littoralis [2] = assay: Antifeedant activity against Spodoptera littoralis measured at 1 mg/l after 8 to 24 hr by behavioral bioassay
# Spodoptera littoralis [3] = assay: Antifeedant activity against Spodoptera littoralis measured at 10 mg/l after 8 to 24 hr by behavioral bioassay
# Spodoptera littoralis [4] = assay: Antifeedant activity against Spodoptera littoralis measured at 50 mg/l after 8 to 24 hr by behavioral bioassay
Structure (SMILES),AFI (Spodoptera littoralis [1]),AFI (Spodoptera littoralis [2]),AFI (Spodoptera littoralis [3]),AFI (Spodoptera littoralis [4])
CCCCCCCCCCCCCC(O)CC(=O)OC (stereo not drawn) [3-HYDROXYHEXADECANOIC ACID METHYL ESTER],45%,-3.5%,9.1%,32%
C=C(C)[C@@H](CC)CC[C@@H](C)[C@H]1CC[C@H]2[C@@H]3CC=C4C[C@@H](O)CC[C@]4(C)[C@H]3CC[C@]12C [CLEROSTEROL],3.3%,,,-15.3%
C=C(C)[C@@H](CC)CC[C@@H](C)[C@H]1CC[C@H]2[C@@H]3CC=C4C[C@@H](OC(=O)CCC)CC[C@]4(C)[C@H]3CC[C@]12C [MIGHAVIDE],10.3%,,,-0.5%

# Reference: ChEMBL document CHEMBL3046795, “Antifeedant activity of plant extracts and of new natural diglyceride compounds isolated from Ajuga pseudoiva leaves against Spodoptera littoralis larvae” (2001)
